The values below come from patent publication US20150051264A1, “INHIBITORS OF NOX4 EXPRESSION AND /OR NOX4 FUNCTION AND THEIR USE IN THE PREVENTION AND TREATMENT OF NERVE INJURY AND/OR NEUROPATHIC PAIN” (FRAUNHOFER-GESELLSCHAFT ZUR FOERDERUNG DER ANGEWANDTEN …, priority 2011, published 2015).

The test system of one assay is Nox4 mRNA. Description: Nox4 mRNA expression by quantitative real-time RT-PCR after tamoxifen induction in Nox4-CreERT2 mice. As to conditions: tamoxifen 1 mg/d i.p. for 3 d. The format is in vivo, mouse. How it is done:
Tamoxifen induction. Tamoxifen (Sigma Aldrich) was prepared by dissolving in ethanol (10 mg per 100 μl) and mixing this solution with 900 μl corn oil for a final concentration of 10 mg/ml. Eight- to ten-week-old Nox4-CreERT2 mice were i.p. injected with 100 μl tamoxifen solution (1 mg, corresponding to about 40 mg/kg tamoxifen) once a day at 10, 11 and 12 d after SNI.
Mice were exsanguinated under deep isoflurane anaesthesia, and tissues were dissected, snap frozen in liquid nitrogen and stored at −80° C. Total RNA from spinal cord, brain and DRGs was extracted under RNase-free conditions using a RNA isolation kit (for spinal cord and brain: RNeasy® Lipid Tissue Mini Kit; Qiagen; for DRGs: RNAqueous Micro Kit; Ambion) according to the manufacturer's instructions, DNase treated for 15 min to minimize genomic DNA contamination and quantified with a NanoDrop® ND-1000 spectrophotometer (NanoDrop® Technologies). cDNA was synthesized using 200 ng RNA, random hexamer primers, RT-Enhancer and the Verso®-enzyme of the Verso® Kit (Thermo Scientific). Real-time RT-PCR was performed with an ABI Prism® 7500 Sequence Detection System (Applied Biosystems) using TaqMan Gene Expression Assays for murine Nox4 (Mm01317086_ml), Nox1 (Mm00549170_m1), Nox2 (Mm01287742_m1), Nox3 (Mm01339132_m1), GAPDH (Mm99999915_μl) and β-actin (Mm00607939_s1), purchased from Applied Biosystems. […] Relative expression of target gene levels was determined using the comparative ΔΔCt method, with Ct indicating the cycle number at which the signal of the PCR product crosses an arbitrary threshold set within the exponential phase of the PCR. […]
(§1) Global gene ablation may cause developmental compensatory adaptations that might affect phenotypic changes in the genetically manipulated adult animal. […] Ten days after SNI, mice were i.p. injected with tamoxifen (1 mg/d for 3 d) to activate Cre recombinase and knock-down Nox4, and paw withdrawal latency times were measured up to 21 d after the first injection.
(In qPCR the cycle at which signal appears reflects the starting amount.)

The next assay deals with Nox4-CreERT2 mice. As to the kind of experiment: Mechanical allodynia (paw withdrawal latency) in the spared nerve injury (SNI) model after tamoxifen induction. Format: in vivo, mouse. As to conditions: tamoxifen 1 mg/d i.p. for 3 d starting 10 d after SNI, observed up to 21 d, no effect in the first 7 d or in tamoxifen-treated control mice. How it is done:
Mechanical paw sensitivity. Paw withdrawal latency after mechanical stimulation was measured with an automated von Frey-type testing device (Dynamic Plantar Aesthesiometer; Ugo Basile) which allows for reliable detection of mechanical sensitivity in mice (Schmidtko et al., 2008). The stainless steel probe of the touch stimulator unit was pushed against the paw with ascending force until a strong and immediate withdrawal occurred. The maximum force was set at 5 g and the ramp speed was 0.5 g/s. The paw withdrawal latency was calculated as the mean of 4-6 measurements with at least 20 s in between.
Neuropathic pain. The “spared nerve injury” (SNI) model and the “chronic constriction injury” (CCI) model were used to investigate neuropathic pain behavior. Surgery was carried out under isoflurane anaesthesia. For SNI, two branches of the sciatic nerve were ligated and cut distally, leaving the sural nerve intact (Decosterd and Woolf, 2000). […]
as §1

As to `CC/C(=C(\c1ccccc1)c1ccc(OCCN(C)C)cc1)c1ccccc1` [tamoxifen, Tamoxifen], the “Nox4 mRNA in DRGs as compared to vehicle-treated Nox4-CreERT2 mice” value in the assay with Nox4 mRNA (Nox4-CreERT2 mice, SNI, 21 d after tamoxifen treatment, P=0.008) is recorded as 54%. Also, the “Nox4 mRNA in the spinal cord as compared to vehicle-treated Nox4-CreERT2 mice” value with Nox4 mRNA (Nox4-CreERT2 mice, SNI, 21 d after tamoxifen treatment, P=0.116) is 83%. The “Nox4 mRNA in DRGs, of baseline levels” value with Nox4 mRNA (21 d after treatment, no significant reduction in the spinal cord) is recorded as about 50%. The “Mechanical allodynia (paw withdrawal latency after mechanical stimulation)” value in the assay with Nox4-CreERT2 mice is reported as “gradually recovered from mechanical allodynia”.
